Laboratory results published in PMC7985297 (Communications Biology, 2021).
“And” between values parts separate entries of the source, which are not always exact repeats. Equal entries are not always repeated.

Tested on: Ki-67, PSA and AR in LN95-D3 xenografts
Experiment: Immunohistochemistry of LN95-D3 xenografts (Ki-67, PSA, AR)
Assay type: in vivo, mice
Source text: Fig. 8 Immunohistochemistry of LN95-D3 xenografts. a Representative images showing the histomorphology and expression of Ki-67, PSA, and AR from harvested tumors. Scale bars represent 100 µm. Statistical analysis for b the percentage of Ki-67-positive tumor cells and for the expression of c PSA and d AR. Error bars represent the mean ± s.d.
Sections were cut from formalin-fixed, paraffin-embedded tumor tissue at a thickness of 5 µm, deparaffinized in xylene, and then rehydrated in alcohols and distilled water. Endogenous peroxidase was blocked by incubating with a 3% hydrogen peroxide solution for 5 min. […] PSA was detected using a monoclonal mouse anti-human PSA antibody concentrate (ER-PR8; Dako). A negative control without the primary antibody was included for each sample on the same slide. Antigen was detected with 3,3-diaminobenzidine (DAB) and hematoxylin was used for counterstaining. Images were captured on an Axio Imager M2 microscope (Zeiss) at ×200 magnification. The percentage of Ki-67-positive cells was determined with ImageJ using the Cell Counter plugin. At least 1000 cells were scored from three images of representative tumors for each treatment group. The intensity of DAB staining for PSA was quantified by ImageJ using color deconvolution and measuring the mean gray value for the DAB image, where optical density = log(max intensity/mean intensity), and a max intensity of 255 for an 8-bit image.

CC1=C(/C=C/C(C)=C/C=C/C(C)=C/C(=O)O)C(C)(C)CCC1 [ATRA, all-trans retinoic acid]
effect on number of Ki-67-positive tumor cells (LN95-D3 xenografts): decreased the number of Ki-67-positive tumor cells in xenografts | levels of AR protein in xenografts (IHC) (LN95-D3 xenografts): decreased slightly | percentage of Ki-67-positive tumor cells (Fig. 8b) (LN95-D3 xenografts, ATRA 5 mg pellet, EPI-7170 30 mg/kg/d, one value per tumor, listed as CMC ATRA): 8.32% and 15.81% and 16.91% | effect on PSA expression in xenografts (IHC) (compared to the control): decreased
